The source of these data is patent US20210346401A1, “REGULATOR OF TGR5 SIGNALING AS IMMUNOMODULATORY AGENT” (YICHANG HUMANWELL PHARMACEUTICAL CO., LTD, priority 2018, published 2021).

For one experiment, the system named is THP1 cells. The experiment in a line: Effects of kinase inhibitors on virus-induced expression of BA metabolism genes and IFNB1 (qPCR). Format: cell-based, human. The note with it: inhibitor treatment, then HSV-1 or SeV for 4 hours. Background: In qPCR the cycle at which signal appears reflects the starting amount.
In a further experiment the test system is TGR5. Particulars: Tgr5+/+ macrophages (BMDMs); infected half an hour, then treatment for 6 hours.
Experiment [1] deals with Raw264.7 cells. Nature of the experiment: Induction of type I IFNs and other antiviral genes by BAs (qPCR). Format: cell-based. Particulars: indicated concentrations of BAs. As to the method:
D. Induction of type I IFNs and other antiviral genes by BAs. Raw264.7 cells were treated by the indicated concentrations of the indicated BAs, followed by qPCR analysis of the expression of the indicated genes. L. Induction of type I IFNs and other antiviral genes by BAs. Raw264.7 cells were treated with LCA (200 μM) or CDCA (200 μM) for the indicated times, followed by qPCR analysis of the expression of the indicated genes.

The test system of experiment [2] is Raw264.7 cells. The experiment in a line: Induction of phosphorylation of TBK1 and IRF3 by BAs (immunoblotting). Format: cell-based. The note with it: indicated concentrations of CDCA and LCA. As for the experimental part: E. Induction of phosphorylation of TBK1 and IRF3 by BAs. Raw264.7 cells were treated by the indicated concentrations of CDCA and LCA, followed by immunoblotting analysis with the indicated antibodies. Cells were lysed with RIPA buffer plus complete protease inhibitors and 20 mM NEM, and lysates were sonicated for 1 min. The lysates were centrifuged at 14000 rpm for 20 min at 4° C. The supernatants were incubated with respective antibodies at 4° C. overnight before protein G beads were added for 2 h. The beads were washed with cold PBS plus 0.5 M NaCl for three times followed by an additional wash with PBS. Proteins were separated by 8% SDS-PAGE, followed by immunoblot analysis with the indicated antibodies.
For orientation: Immunoblotting shows a protein as a band on a membrane.

A further experiment concerns monocytes. Particulars: monocytes in vitro; cited from earlier work.
In another experiment the test system is VSV-GFP. The experiment is classed as cell-based.
Another experiment has as its system SRC. The experiment in a line: Induction of pY416 of SRC by INT-777 and BA treatments (immunoblotting). The experiment is classed as cell-based. The note with it: HEK293 cells, treatment for 1 hours. As to the method: G. Induction of pY416 of SRC by INT-777 and BA treatments. HEK293 cells were treated with DMSO, INT-777 or the indicated BAs for 1 hours, followed by immunoblotting analysis with the indicated antibodies.
Cells were lysed with RIPA buffer plus complete protease inhibitors and 20 mM NEM, and lysates were sonicated for 1 min. The lysates were centrifuged at 14000 rpm for 20 min at 4° C. The supernatants were incubated with respective antibodies at 4° C. overnight before protein G beads were added for 2 h. The beads were washed with cold PBS plus 0.5 M NaCl for three times followed by an additional wash with PBS. Proteins were separated by 8% SDS-PAGE, followed by immunoblot analysis with the indicated antibodies.

With `Cc1ccc2nc(NCCN)c3ncc(C)n3c2c1` [BMS-345541], the “HSV-1- and SeV-induced transcription of CYP7A1, CYP7B1, CYP27A1 and OATP genes” value with THP1 cells was “abolished”.
With `C[C@H](CCC(=O)O)[C@H]1CC[C@H]2[C@@H]3[C@H](O)C[C@@H]4C[C@H](O)CC[C@]4(C)[C@H]3CC[C@]12C` [CDCA, chenodeoxycholic acid], in the experiment with TGR5, the “HSV-1- and SeV-induced transcription of Ifnb1” value was “potentiated”. Further, the “transcription of downstream innate immunity genes including IFNB1, CXCL10 and ISG56” value with Raw264.7 cells [1] is given as “potently induced”. In the experiment with Raw264.7 cells [2], the “phosphorylation of TBK1 and IRF3” value was “induced phosphorylation”. The “production of interleukin-1, interleukin-6 and tumor necrosis factor-α” value in the experiment with monocytes is listed as “inhibits”. In addition, the VSV-GFP replication result in the experiment on VSV-GFP is recorded as “dramatically inhibited”.
For `CC[C@H]1[C@@H](O)[C@@H]2[C@H](C[C@H](O)[C@]3(C)[C@@H]([C@H](C)C[C@H](C)C(=O)O)CC[C@@H]23)[C@@]2(C)CC[C@@H](O)C[C@@H]12` [INT-777], in the experiment on TGR5, the “HSV-1- and SeV-induced transcription of Ifnb1” value was “potentiated”. Further, the “phosphorylation of SRC at Y416” value with SRC was “induced phosphorylation”.
